Among the data in PubChem BioAssay (NCI) are GI50 and TGI values, retold here.

Several values for one entry are separate records, joined by “and”; a condition that tells them apart may be missing. Equal entries are not always repeated.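 Test compounds were applied to cells in 96-well plates for 48 hours at 5 doses. The concentration for 50% growth inhibition is given as GI50. TGI: concentration producing complete growth inhibition.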 Bounds are passed on as bounds.

Among the test systems are LOX IMVI melanoma; SF-268 CNS; OVCAR-8 ovarian; SK-MEL-5 melanoma; K-562 leukemia; NCI-H522 lung; OVCAR-4 ovarian; KM12 colon; COLO 205 colon.
What all share (assay): NCI-60 cell line screen, 48 h

Turning to `COC(=O)[C@@H](C)C[C@H](Cc1ccccc1)NC(=O)c1csc([C@@H](C[C@H](C(C)C)N(C)C(=O)C2(NC(=O)[C@H]3CCCCN3C)CCC2)OC(C)=O)n1`, the GI50 in the assay with LOX IMVI melanoma is 7.71 nM and 2.5 nM; in the assay with SF-268 CNS it was 6.61 nM and 17.5 nM; in the assay with OVCAR-8 ovarian, 16.8 nM and 6.26 nM; with SK-MEL-5 melanoma, 4.01 nM and 2.5 nM; with K-562 leukemia, 2.52 nM and 2.5 nM; with NCI-H522 lung, 1.65 nM. Moreover, the GI50 in the assay with KM12 colon is 3.19 nM and 5.22 nM; with COLO 205 colon, 3.35 nM and 2.5 nM. Besides, the TGI was greater than 25 µM in the assay with LOX IMVI melanoma; greater than 25 µM in the assay with SF-268 CNS; greater than 25 µM with OVCAR-8 ovarian; 146 nM and 125 nM in the assay with SK-MEL-5 melanoma; greater than 25 µM in the assay on K-562 leukemia; greater than 25 µM in the assay on OVCAR-4 ovarian. Moreover, the TGI was greater than 25 µM with KM12 colon; 120 nM and 18.2 nM with COLO 205 colon.

On to `Cc1ccc(NC(=O)/C(=N\NC(N)=S)C(C#N)c2ccccc2C)cc1C` (stereo unspecified), for which the TGI in the assay with SF-268 CNS is greater than 100 µM; in the assay with OVCAR-8 ovarian, greater than 100 µM; in the assay on SK-MEL-5 melanoma it was greater than 100000 nM; with K-562 leukemia, greater than 100 µM; in the assay on NCI-H522 lung it was greater than 100 µM; in the assay on OVCAR-4 ovarian, greater than 100 µM. Also, the values for the TGI in the assay with KM12 colon and with COLO 205 colon were greater than 100 µM and greater than 100000 nM, respectively.

Take `COc1cc(/C=C/C(=O)c2c(C)nc3ccccc3c2C)ccc1OCCCCOc1cc2c(cc1OC)C(=O)N1CCC[C@H]1C=N2`: the GI50 with SF-268 CNS is 277 nM; with OVCAR-8 ovarian it was 245 nM; in the assay with SK-MEL-5 melanoma, 517 nM; in the assay with NCI-H522 lung, 339 nM; with OVCAR-4 ovarian, 470 nM; in the assay on KM12 colon it was 308 nM. Further, the GI50 in the assay with COLO 205 colon is 740 nM. Moreover, the TGI in the assay on SF-268 CNS is 1.04 µM; in the assay with OVCAR-8 ovarian, 0.703 µM; with SK-MEL-5 melanoma it was 1470 nM; in the assay with NCI-H522 lung it was 1.26 µM; with OVCAR-4 ovarian it was 4.62 µM; in the assay with KM12 colon, 0.839 µM. For the same compound, the TGI with COLO 205 colon worked out at 2140 nM.

Take `N#Cc1c(-c2ccccc2)cc(-c2cccs2)c(C#N)c1N`: the TGI with LOX IMVI melanoma was greater than 100 µM; in the assay with SF-268 CNS, greater than 100 µM; in the assay on OVCAR-8 ovarian it was greater than 100 µM; in the assay on SK-MEL-5 melanoma, greater than 100000 nM; in the assay on K-562 leukemia it was greater than 100 µM; with NCI-H522 lung, greater than 100 µM. Also, the TGI in the assay on OVCAR-4 ovarian and in the assay with KM12 colon was greater than 100 µM each time.

For `COc1cc2c(cc1OCCCCn1c(-c3cccs3)nc3ccccc31)N=C[C@@H]1CCCN1C2=O`, the GI50 with LOX IMVI melanoma was 789 nM; in the assay on SF-268 CNS it was 1800 nM; in the assay on OVCAR-8 ovarian, 2580 nM; with SK-MEL-5 melanoma, 1090 nM; in the assay with K-562 leukemia, 15500 nM; with NCI-H522 lung, 1040 nM. The GI50 with OVCAR-4 ovarian is 1610 nM; in the assay with KM12 colon, 1920 nM; with COLO 205 colon, 1070 nM. Besides, the TGI was 3.93 µM with LOX IMVI melanoma; 5.48 µM in the assay on SF-268 CNS; greater than 100 µM in the assay with OVCAR-8 ovarian; 2300 nM in the assay with SK-MEL-5 melanoma; greater than 100 µM in the assay with K-562 leukemia; 3.14 µM in the assay on NCI-H522 lung. Further, the values for the TGI in the assay on OVCAR-4 ovarian, in the assay on KM12 colon and with COLO 205 colon were 4.67 µM, 5.38 µM and 2580 nM, respectively.

As to `Cc1ccc(NC(=O)c2nc(S(C)(=O)=O)oc2-c2ccc(F)cc2)cc1Nc1ccc2ncn(C)c(=O)c2c1`, in the assay on KM12 colon, the GI50 is 3120 nM and the TGI is 11.1 µM.

For the compound `O=C(/C=C/c1nnc2n(Cc3ccccc3)c(=O)c3c4c(sc3n12)CCCC4)c1ccccc1`, the GI50 with LOX IMVI melanoma is 3480 nM; in the assay with SF-268 CNS, 4590 nM; in the assay on OVCAR-8 ovarian it was 38.7 nM; with SK-MEL-5 melanoma it was greater than 100000 nM; in the assay with K-562 leukemia, 902 nM and 199 nM; in the assay on NCI-H522 lung, 1090 nM. Further, in the assay on KM12 colon, the GI50 is 4100 nM. The TGI in the assay on SF-268 CNS was greater than 100 µM; with OVCAR-8 ovarian it was 0.419 µM; in the assay with SK-MEL-5 melanoma, greater than 100000 nM; with K-562 leukemia, greater than 100 µM; in the assay on NCI-H522 lung, greater than 100 µM.

With `O=C1C(=C([O-])c2ccccc2)C(=O)c2ccccc21.O=C1C(=C([O-])c2ccccc2)C(=O)c2ccccc21.[Co+2]`, the GI50 with LOX IMVI melanoma was 82100 nM; in the assay with SF-268 CNS, greater than 100000 nM; in the assay with OVCAR-8 ovarian it was greater than 100000 nM; in the assay with SK-MEL-5 melanoma, greater than 100000 nM; in the assay on K-562 leukemia, greater than 100000 nM; with NCI-H522 lung, 80600 nM. Besides, the GI50 in the assay on OVCAR-4 ovarian is greater than 100000 nM; in the assay with KM12 colon, greater than 100000 nM; with COLO 205 colon, 38500 nM. The TGI in the assay with LOX IMVI melanoma is greater than 100 µM; in the assay with SF-268 CNS, greater than 100 µM; in the assay with OVCAR-8 ovarian it was greater than 100 µM; with SK-MEL-5 melanoma, greater than 100000 nM; with K-562 leukemia, greater than 100 µM; in the assay on NCI-H522 lung it was greater than 100 µM. In addition, the TGI was greater than 100 µM with OVCAR-4 ovarian, greater than 100 µM with KM12 colon and greater than 100000 nM with COLO 205 colon.
